Data on ten compounds can be found in patent publication US7348351B2, “Substituted 3-alkyl and 3-arylalkyl 1H-indol-1yl acetic acid derivatives as inhibitors of plasminogen activator inhibitor-1 (PAI-1)” (Wyeth, priority 2002, dated 2008).

The target in data set [1] is T1, recombinant human plasminogen activator inhibitor-1 (Homo sapiens, UniProt P05121).
T1 construct: purchased Molecular Innovations, Royal Oak, Mich
Nature of the data set: Primary Screen for the PAI-1 Inhibition (residual tPA activity, chromogenic Spectrozyme-tPA). It counts as biochemical. The following applies: 25 μM test compound; 140 nM PAI-1, 70 nM tPA, pH 6.6. The method, then: Primary Screen for the PAI-1 Inhibition
Test compounds were dissolved in DMSO at a final concentration of 10 mM, then diluted 100× in physiologic buffer. The inhibitory assay was initiated by the addition of the test compound (1-100 μM final concentration, maximum DMSO concentration of 0.2%) in a pH 6.6 buffer containing 140 nM recombinant human plasminogen activator inhibitor-1 (Molecular Innovations, Royal Oak, Mich.). Following a 1 hour incubation at room temperature, 70 nM of recombinant human tissue plasminogen activator (tPA) was added, and the combination of the test compound, PAI-1 and tPA was incubated for an additional 30 minutes. Following the second incubation, Spectrozyme-tPA (American Diagnostica, Greenwich, Conn.), a chromogenic substrate for tPA, was added and absorbance read at 405 nm at 0 and 60 minutes. Relative PAI-1 inhibition is equal to the residual tPA activity in the presence of test compound and PAI-1. Control treatments included the complete inhibition of tPA by PAI-1 at the molar ratio employed (2:1), and the absence of any effect of the test compound on tPA alone.

In a further data set the target is human PAI-1 (Homo sapiens, UniProt P05121). Kind of data set: Assay for Determining IC50 of Inhibition of PAI-1 (antibody detection of active PAI-1 bound to tPA-coated plate). In kind it is biochemical. The settings on record: human PAI-1 50 ng/ml, pH 7.5, 33B8 monoclonal antibody detection. Here is the method: Assay for Determining IC50 of Inhibition of PAI-1
Sequence of human PAI-1 (P05121 24-402): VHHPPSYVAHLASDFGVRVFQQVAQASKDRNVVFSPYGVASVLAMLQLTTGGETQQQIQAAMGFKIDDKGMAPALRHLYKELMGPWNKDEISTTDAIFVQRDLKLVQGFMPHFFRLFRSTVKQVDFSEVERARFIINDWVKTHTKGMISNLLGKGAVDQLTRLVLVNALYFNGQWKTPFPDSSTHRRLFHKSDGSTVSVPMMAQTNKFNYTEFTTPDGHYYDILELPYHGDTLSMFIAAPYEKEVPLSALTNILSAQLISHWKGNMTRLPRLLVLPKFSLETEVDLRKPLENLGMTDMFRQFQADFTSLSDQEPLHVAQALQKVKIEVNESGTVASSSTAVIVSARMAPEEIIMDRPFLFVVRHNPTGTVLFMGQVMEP
This assay was based upon the non-SDS dissociable interaction between tPA and active PAI-1. Assay plates were initially coated with human tPA (10 μg/ml). The test compounds were dissolved in DMSO at 10 mM, then diluted with physiologic buffer (pH 7.5) to a final concentration of 1-50 μM. The test compounds were incubated with human PAI-1 (50 ng/ml) for 15 minutes at room temperature. The tPA-coated plate was washed with a solution of 0.05% Tween 20 and 0.1% BSA, then the plate was blocked with a solution of 3% BSA. An aliquot of the test compound/PAI-1 solution was then added to the tPA-coated plate, incubated at room temperature for 1 hour, and washed. Active PAI-1 bound to the plate was assessed by adding an aliquot of a 1:1000 dilution of the 33B8 monoclonal antibody against human PAI-1, and incubating the plate at room temperature for 1 hour (Molecular Innovations, Royal Oak, Mich.). […] The plate was incubated 45 minutes at room temperature, and color development was determined at OD405 nm. The quantitation of active PAI-1 bound to tPA at varying concentrations of the test compound was used to determine the IC50. Results are analyzed using a logarithmic best-fit equation. The assay sensitivity was 5 ng/ml of human PAI-1 as determined from a standard curve ranging from 0-100 ng/ml.

T1 sequence (P05121 24-402): as above

In general, inhibition refers to the percentage by which the read-out fell short of the control. As a reminder, the melting point is the temperature of the solid-liquid transition. On to `O=C(O)Cn1cc(Cc2cc(C(F)(F)F)cc(C(F)(F)F)c2)c2cc(-c3ccc(Cl)cc3Cl)ccc21` [Example 3, [3-[3,5-bis(trifluoromethyl)benzyl]-5-(2,4-dichlorophenyl)-1H-indol-1-yl]acetic acid], for which the melting point lay within 150 to 155 °C. Also, in data set [1], the inhibition at 25 µM was 100%. As to `CC(c1cccs1)c1cn(CC(=O)O)c2ccc(-c3cccc(C(F)(F)F)c3)cc12` (centres unmarked) [Example 7, [3-(1-Thiophen-2-yl-ethyl)-5-(3-trifluoromethyl-phenyl)-indol-1-yl]acetic acid], in data set [1], the inhibition at 25 µM turned out to be 47%.

For the compound `O=C(O)Cn1cc(Cc2cc(C(F)(F)F)cc(C(F)(F)F)c2)c2cc(-c3cccc(C(F)(F)F)c3)ccc21` [Example 4, {3-[3,5-bis(triflu romethyl)benzyl]-5-[3-(trifluoromethyl)phenyl]-1H-indol-1-yl}acetic acid], the melting point lay in the range of 175 to 176 °C. Besides, the inhibition at 25 µM in data set [1] stood at 35%. Regarding `CC(c1cn(CC(=O)O)c2ccc(-c3ccc(Cl)cc3Cl)cc12)C1CCCCC1` (centres unmarked) [Example 12, [3-(1-Cyclohelxy-ethyl)-5-(2,4-dichloro-phenyl)-indol-1-yl]-acetic acid], the “% Inhibition @ 25 μM” value in data set [1] stood at 48%. The IC50 is the concentration needed to halve the response being measured. Low values mean inhibition by little substance, high ones a need for much substance. The compound `O=C(O)Cn1cc(Cc2cc(C(F)(F)F)cc(C(F)(F)F)c2)c2cc(-c3ccc(OC(F)(F)F)cc3)ccc21` [Example 2] showed a melting point of 188 to 190 °C. In addition, in data set [1], the inhibition at 25 µM came out at 31%. Also, the IC50 on human PAI-1 came out at 15.1 µM. With `CC(C)c1ccc(Cc2cn(CC(=O)O)c3ccc(-c4cccc(C(F)(F)F)c4)cc23)cc1` [Example 9, [3-(4-Isopropyl-benzyl)-5-(3-trifluoromethyl-phenyl)-indol-1-yl]acetic acid], the inhibition at 25 µM in data set [1] came out at 26%.

Regarding `CC(C)CC(C)c1cn(CC(=O)O)c2ccc(-c3ccc(Cl)cc3Cl)cc12` (centres unmarked) [Example 10, [5-(2,4-Dichloro-phenyl)-3-(1,3-dimethyl-butyl)-indol-1-yl]-acetic acid], the inhibition at 25 µM in data set [1] came out at 48%. Same read-out and setting: the figure for `CC(c1ccccc1)c1cn(CC(=O)O)c2ccc(-c3cccc(C(F)(F)F)c3)cc12` (centres unmarked) [Example 6, [3-(1-Phenyl-ethyl)-5-(3-trifluoromethyl-phenyl)-indol-1-yl]acetic acid] is 49%. Regarding `CC(c1cn(CC(=O)O)c2ccc(-c3cccc(C(F)(F)F)c3)cc12)C1CCCCC1` (centres unmarked) [Example 8, [3-(1-Cyclohexyl-ethyl)-5-(3-trifluoromethyl-phenyl)-indol-1-yl]acetic acid], in data set [1], the inhibition at 25 µM is 64%. Same read-out and setting: the figure for `CC(c1ccccc1)c1cn(CC(=O)O)c2ccc(-c3ccc(Cl)cc3Cl)cc12` (centres unmarked) [Example 11, [5-(2,4-Dichloro-phenyl)-3-(1-phenyl-ethyl)-indol-1-yl]-acetic acid] is 26%.
